From patent US10259808B2 (Genentech, Inc., priority 2015, dated 2019)
pIC50: −log10 of the molar value.

target: T1, RORc ligand binding domain (Homo sapiens, UniProt P51449); experiment: In vitro RORc ligand binding assay (25-[3H]hydroxycholesterol displacement)
T1 sequence (P51449 269-508 limits assumed): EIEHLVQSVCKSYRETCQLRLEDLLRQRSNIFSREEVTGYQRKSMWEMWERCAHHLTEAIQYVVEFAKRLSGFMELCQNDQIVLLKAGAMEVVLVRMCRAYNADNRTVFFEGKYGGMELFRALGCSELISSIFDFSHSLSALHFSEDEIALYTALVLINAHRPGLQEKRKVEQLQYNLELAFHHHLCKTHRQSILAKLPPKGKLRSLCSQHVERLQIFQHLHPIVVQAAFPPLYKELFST
Experimental: This assay was used to determine a compound's potency in inhibiting activity of RORc by determining, Kiapp, IC50, or percent inhibition values.
On day of the assay, 100 uL of 0.05% CHAPS (in deionized H2O) was added to all wells of the GFB Unifilter plate and allowed soak for 1 h. A wash buffer of 50 mM HEPES (pH 7.4), 150 mM NaCl, and 5 mM MgCl2 was prepared to wash the filter plate. To prepare an assay buffer, BSA was added to the wash buffer to reach 0.01% and DTT was added to reach 1 mM.
The 20× compound stocks were diluted in DMSO with Assay Buffer 4-fold to reach 5× the final test concentration in 25% DMSO (10 uL compound+30 uL Assay Buffer). Solutions were mixed by aspiration several times with a pipette set on 50 uL volume.
For two point screening, 10 mM stock compound solutions were diluted in DMSO to obtain 200 uM (20× the high test concentration) and then diluted 10-fold further to reach 20 uM (20× the low test concentration). The 20× stocks were diluted 4-fold with Assay Buffer (10 uL compound+30 uL Assay Buffer) to reach 5× the test concentrations (50 uM and 5 uM) and 10 uL were added to two assay plates for the duplicate wells. With each concentration tested on 2 plates, each set of 80 compounds used 4 assay plates (1 uM and 10 uM, with n=2).
Nonspecific Binding (NSB) Samples, Total Binding (TB) Samples and No Receptor (No R) Samples
For 25-hydroxycholesterol in 25% DMSO/75% Assay Buffer; 10 uL per well was used for NSB samples. Wells for Total Binding and No Receptor sample determination contained 10 uL of 25% DMSO/75% Assay Buffer per well.
Radioligand 25-[^3H]Hydroxycholesterol) Preparation
Add 20 uL to all wells to reach 6 nM final in the assay.
Stock receptor solution was diluted in assay buffer to obtain 1.5 ug/mL in Assay Buffer. 20 uL was added to all wells. For No R samples, 20 uL Assay Buffer was substituted for receptor solution.
Sample addition to Plates and Incubation
Assay plates were 96-well polypropylene V-bottom plates. […] 10 uL of 25% DMSO/75% Assay Buffer was added to Total Binding or No Receptor wells. 10 uL of 5 uM 25-hydroxycholesterol in 25% DMSO/75% Assay Buffer was added to NSB wells. […] 20 uL of 1.5 ug/mL RORc receptor was added to wells (or 40 uL Assay Buffer to No R wells). Following addition to the wells, the plates were incubated 3 h at 25° C.
Using a Packard Filtermate Harvester, the filter plate were washed 4 times following transfer of the incubated samples. Plates were dry-filtered completely (2 h at 50° C. or overnight at room temperature). 50 uL Microscint 0 was added to all wells and read on Topcount protocol Inverted.
Final concentrations were as follows: 50 mM HEPES buffer (pH 7.4); 150 mM NaCl; 1 mM DTT; 5 mM MgCl2; 0.01% BSA; 5% DMSO; 0.6 ug/mL RORc receptor; 6 nM 25-[^3H]hydroxycholesterol. For NSB wells, 1 uM 25-hydroxycholesterol was also present.

Structure (SMILES) | pIC50
C[C@H]1CC[C@H](c2ccccc2)S(=O)(=O)N1Cc1cc(F)c(C2(NC(=O)c3ccon3)CCOCC2)cc1F [Example 107, N-[4-[2,5-difluoro-4-[[(3S,6R)-3-methyl-1,1-dioxo-6-phenyl-thiazinan-2-yl]methyl]phenyl]tetrahydropyran-4-yl]isoxazole-3-carboxamide] | 8.57
C=C[C@]1(O)C[C@@](c2c[nH]c(=O)o2)(c2cc(F)c(CN3[C@@H](C)CC[C@H](c4ccccc4)S3(=O)=O)cc2F)C1 [Example 164, 5-[1-[2,5-difluoro-4-[[(3S,6R)-3-methyl-1,1-dioxo-6-phenyl-thiazinan-2-yl]methyl]phenyl]-3-hydroxy-3-vinyl-cyclobutyl]-3H-oxazol-2-one] | 8.21
C[C@H]1CC[C@H](c2ccccc2)S(=O)(=O)N1Cc1ccc(C2(c3nnc[nH]3)CCOCC2)cc1F [Example 46, (3S,6R)-2-[[2-fluoro-4-[4-(4H-1,2,4-triazol-3-yl)tetrahydropyran-4-yl]phenyl]methyl]-3-methyl-6-phenyl-thiazinane 1,1-dioxide] | 7.58
C[C@H]1CC[C@H](c2ccccc2)S(=O)(=O)N1Cc1cc(F)c(C2(NC(=O)c3ccon3)COC2)cc1F [Example 97, N-[3-[2,5-difluoro-4-[[(3S,6R)-3-methyl-1,1-dioxo-6-phenyl-thiazinan-2-yl]methyl]phenyl]oxetan-3-yl]isoxazole-3-carboxamide] | 7.65
C[C@H]1CC[C@H](c2ccccc2)S(=O)(=O)N1Cc1cc(F)c(C2(C(=O)n3cccn3)CCOCC2)cc1F [Example 39, [4-[2,5-difluoro-4-[[(3S,6R)-3-methyl-1,1-dioxo-6-phenyl-thiazinan-2-yl]methyl]phenyl]tetrahydropyran-4-yl]-pyrazol-1-yl-methanone] | 7.56
C[C@H]1CC[C@H](c2ccccc2)S(=O)(=O)N1Cc1cc(F)c(C2(NCc3cc[nH]n3)COC2)cc1F [Example 84, 3-[2,5-difluoro-4-[[(3S,6R)-3-methyl-1,1-dioxo-6-phenyl-thiazinan-2-yl]methyl]phenyl]-N-(1H-pyrazol-3-ylmethyl)oxetan-3-amine] | 8.24
C[C@H]1CC[C@H](c2ccccc2)S(=O)(=O)N1Cc1ccc(C2(NCc3cnccn3)CCOCC2)cc1F [Example 66, 4-[3-fluoro-4-[[(3S,6R)-3-methyl-1,1-dioxo-6-phenyl-thiazinan-2-yl]methyl]phenyl]-N-(pyrazin-2-ylmethyl)tetrahydropyran-4-amine] | 8.18
C[C@H]1CC[C@H](c2ccccc2)S(=O)(=O)N1Cc1cc(F)c([C@]2(c3nc(CO)n[nH]3)C[C@](C)(O)C2)cc1F (racemic) [Example 186, 3-[2,5-difluoro-4-[[rac-(3S,6R)-3-methyl-1,1-dioxo-6-phenyl-thiazinan-2-yl]methyl]phenyl]-3-[3-(hydroxymethyl)-1H-1,2,4-triazol-5-yl]-1-methyl-cyclobutanol] | 8.36
CNc1nnc(C2(c3cc(F)c(CN4[C@@H](C)CC[C@H](c5ccccc5)S4(=O)=O)cc3F)CCOCC2)o1 [Example 90, 5-[4-[2,5-difluoro-4-[[(3S,6R)-3-methyl-1,1-dioxo-6-phenyl-thiazinan-2-yl]methyl]phenyl]tetrahydropyran-4-yl]-N-methyl-1,3,4-oxadiazol-2-amine] | 7.86
Cc1nocc1CNC(=O)C1(c2ccc(CN3[C@@H](C)CC[C@H](c4ccccc4)S3(=O)=O)c(F)c2)CCOCC1 [Example 2] | 7.20
Cc1cc(C(=O)NC2(c3cc(F)c(CN4[C@@H](C)CC[C@H](c5ccccc5)S4(=O)=O)cc3F)CCOCC2)no1 [Example 93, N-[4-[2,5-difluoro-4-[[(3,6R)-3-methyl-1,1-dioxo-6-phenyl-thiazinan-2-yl]methyl]phenyl]tetrahydropyran-4-yl]-5-methyl-isoxazole-3-carboxamide] | 7.36
C[C@H]1CC[C@H](c2ccccc2)S(=O)(=O)N1Cc1cc(F)c(C2(N3C[C@@H](CO)OC3=O)CCOCC2)cc1F [Example 99, (5S)-3-[4-[2,5-difluoro-4-[[(3S,6R)-3-methyl-1,1-dioxo-6-phenyl-thiazinan-2-yl]methyl]phenyl]tetrahydropyran-4-yl]-5-(hydroxymethyl)oxazolidin-2-one] | 7.23
C[C@H]1CC[C@H](c2ccccc2)S(=O)(=O)N1Cc1ccc(C2(c3nnco3)CCOCC2)cc1F [Example 42, (3S,6R)-2-[[2-fluoro-4-[4-(1,3,4-oxadiazol-2-yl)tetrahydropyran-4-yl]phenyl]methyl]-3-methyl-6-phenyl-thiazinane 1,1-dioxide] | 7.26
COC[C@]1(O)C[C@@](c2n[nH]c(=O)o2)(c2cc(F)c(CN3[C@@H](C)CC[C@H](c4ccccc4)S3(=O)=O)cc2F)C1 (racemic) [Example 169, 5-[1-[2,5-difluoro-4-[[rac-(3S,6R)-3-methyl-1,1-dioxo-6-phenyl-thiazinan-2-yl]methyl]phenyl]-3-hydroxy-3-(methoxymethyl)cyclobutyl]-3H-1,3,4-oxadiazol-2-one] | 8.19
C[C@H]1CC[C@H](c2ccccc2)S(=O)(=O)N1Cc1ccc(C2(NCc3ccc[nH]c3=O)CCOCC2)cc1F [Example 77, 3-[[[4-[3-fluoro-4-[[(3S,6R)-3-methyl-1,1-dioxo-6-phenyl-thiazinan-2-yl]methyl]phenyl]tetrahydropyran-4-yl]amino]methyl]-1H-pyridin-2-one] | 7.06
C[C@H]1CC[C@H](c2ccccc2)S(=O)(=O)N1Cc1cc(F)c([C@]2([C@H](O)Cc3ncn[nH]3)C[C@](C)(O)C2)cc1F (racemic) [Example 171, 3-[2,5-difluoro-4-[[rac-(3S,6R)-3-methyl-1,1-dioxo-6-phenyl-thiazinan-2-yl]methyl]phenyl]-1-methyl-3-[rac-(1R)-1-hydroxy-2-(1H-1,2,4-triazol-5-yl)ethyl]cyclobutanol] | 7.30
C[C@H]1CC[C@H](c2ccccc2)S(=O)(=O)N1Cc1cc(F)c(C2(C(=O)NCc3ccnn3C)CCOCC2)cc1F [Example 33, 4-[2,5-difluoro-4-[[(3S,6R)-3-methyl-1,1-dioxo-6-phenyl-thiazinan-2-yl]methyl]phenyl]-N-[(2-methylpyrazol-3-yl)methyl]tetrahydropyran-4-carboxamide] | 7.63
C[C@H]1CC[C@H](c2ccccc2)S(=O)(=O)N1Cc1cc(F)c(C2(c3nnc(N)o3)CCOCC2)cc1F [Example 61, 5-[4-[2,5-difluoro-4-[[(3S,6R)-3-methyl-1,1-dioxo-6-phenyl-thiazinan-2-yl]methyl]phenyl]tetrahydropyran-4-yl]-1,3,4-oxadiazol-2-amine] | 7.72
C[C@H]1CC[C@H](c2ccccc2)S(=O)(=O)N1Cc1ccc(C2(C(=O)NCc3cn[nH]c3)CCOCC2)cc1F [Example 17, 4-[3-fluoro-4-[[(3S,6R)-3-methyl-1,1-dioxo-6-phenyl-thiazinan-2-yl]methyl]phenyl]-N-(1H-pyrazol-4-ylmethyl)tetrahydropyran-4-carboxamide] | 7.49
C[C@H]1CC[C@H](c2ccccc2)S(=O)(=O)N1Cc1cc(F)c(C2(NCc3ncco3)COC2)cc1F [Example 88, 3-[2,5-difluoro-4-[[(3S,6R)-3-methyl-1,1-dioxo-6-phenyl-thiazinan-2-yl]methyl]phenyl]-N-(oxazol-2-ylmethyl)oxetan-3-amine] | 8.09
C[C@H]1CC[C@H](c2ccccc2)S(=O)(=O)N1Cc1ccc(C2(CN3CCOCC3)CCOCC2)cc1F [Example 24] | 7.95
C[C@H]1CC[C@H](c2ccccc2)S(=O)(=O)N1Cc1ccc(C2(NCc3cc[nH]c(=O)c3)CCOCC2)cc1F [Example 72, 4-[[[4-[3-fluoro-4-[[(3S,6R)-3-methyl-1,1-dioxo-6-phenyl-thiazinan-2-yl]methyl]phenyl]tetrahydropyran-4-yl]amino]methyl]-1H-pyridin-2-one] | 7.97
C[C@H]1CC[C@H](c2ccccc2)S(=O)(=O)N1Cc1cc(F)c(C2(c3n[nH]c(=O)o3)CC2)cc1F [Example 121, 5-[1-[2,5-difluoro-4-[[(3S,6R)-3-methyl-1,1-dioxo-6-phenyl-thiazinan-2-yl]methyl]phenyl]cyclopropyl]-3H-1,3,4-oxadiazol-2-one] | 7.71
C[C@H]1CC[C@H](c2ccccc2)S(=O)(=O)N1Cc1cc(F)c(C2(Nc3cnccn3)CCOCC2)cc1F [Example 118, N-[4-[2,5-difluoro-4-[[(3S,6R)-3-methyl-1,1-dioxo-6-phenyl-thiazinan-2-yl]methyl]phenyl]tetrahydropyran-4-yl]pyrazin-2-amine] | 8.28
C[C@H]1CC[C@H](c2ccccc2)S(=O)(=O)N1Cc1ccc(C2(NCc3cnc[nH]3)CCOCC2)cc1F [Example 62, 4-[3-fluoro-4-[[(3S,6R)-3-methyl-1,1-dioxo-6-phenyl-thiazinan-2-yl]methyl]phenyl]-N-(1H-imidazol-5-ylmethyl)tetrahydropyran-4-amine] | 7.69
C[C@H]1CC[C@H](c2ccccc2)S(=O)(=O)N1Cc1cc(F)c([C@]2(c3nnc[nH]3)C[C@@H](O)C2)cc1F [Example 115, 3-[2,5-difluoro-4-[[(3S,6R)-3-methyl-1,1-dioxo-6-phenyl-thiazinan-2-yl]methyl]phenyl]-3-(4H-1,2,4-triazol-3-yl)cyclobutanol] | 8.11
C[C@H]1CC[C@H](c2ccccc2)S(=O)(=O)N1Cc1cc(F)c(C2(NCc3ccn[nH]3)CCOCC2)cc1F [Example 73, 4-[2,5-difluoro-4-[[(3S,6R)-3-methyl-1,1-dioxo-6-phenyl-thiazinan-2-yl]methyl]phenyl]-N-(1H-pyrazol-5-ylmethyl)tetrahydropyran-4-amine] | 8.54
C[C@H]1CC[C@H](c2ccccc2)S(=O)(=O)N1Cc1cc(F)c([C@]2(Cn3cncn3)C[C@](C)(O)C2)cc1F (racemic) [Example 182, 3-[2,5-difluoro-4-[[rac-(3S,6R)-3-methyl-1,1-dioxo-6-phenyl-thiazinan-2-yl]methyl]phenyl]-1-methyl-3-(1,2,4-triazol-1-ylmethyl)cyclobutanol] | 8.14
